This is an account of results in patent US20240058459A1 (Ashvattha Therapeutics, Inc., priority 2019, published 2024).

The subject of data set [1] is choroidal neovascular (CNV) lesions. As to the kind of experiment: Localization and persistence in CNV lesions after systemic administration, laser-induced CNV mouse model. Type of data set: in vivo, C57BL/6 mice. As for the experimental part: Two studies were conducted in C57BL/6 mice (n=5/group) administered intravenously 100 μL of D-ICG or vehicle control. In the first study, mice were administered D-ICG or vehicle control at 1, 3, 7, or 14 days post-laser and eyes were analyzed by optical coherence tomography (OCT) with ICG imaging at 4 or 24 hr post-dose. Flat-mounts of the sclera-choroid/retinal pigment epithelial (RPE) complexes were stained by fluorescently tagged isolectin and IBA-1.
The second study evaluated the localization and persistence of dendrimer conjugates in the CNV lesion. In the second study, mice were administered intravenously 100 μL of D-ICG and 100 μL of D-TRITC (1 hr after D-ICG) or vehicle control at 24 hr post-laser. Mice analyzed and sacrificed at 4, 7, 14, 21, and 28 days post-dose (n=5/group). For control group, free ICG (1.23 mg/mL), 100 μL, IV dosed 24 hr post-laser and mice analyzed and sacrificed at 2, 4, 7, and 14 days post-dose (n=5/group). Eyes analyzed by optical coherence tomography (OCT) with ICG imaging. Flat-mounts of the sclera-choroid/retinal pigment epithelial (RPE) complexes were stained by fluorescently tagged IBA-1 alone.

For a further data set, the target named is TIE II (Homo sapiens (Human), UniProt Q02763). As to the kind of experiment: TIE II inhibition, dissociation constant. The format is binding.
Chain of TIE II (Q02763 23-1124): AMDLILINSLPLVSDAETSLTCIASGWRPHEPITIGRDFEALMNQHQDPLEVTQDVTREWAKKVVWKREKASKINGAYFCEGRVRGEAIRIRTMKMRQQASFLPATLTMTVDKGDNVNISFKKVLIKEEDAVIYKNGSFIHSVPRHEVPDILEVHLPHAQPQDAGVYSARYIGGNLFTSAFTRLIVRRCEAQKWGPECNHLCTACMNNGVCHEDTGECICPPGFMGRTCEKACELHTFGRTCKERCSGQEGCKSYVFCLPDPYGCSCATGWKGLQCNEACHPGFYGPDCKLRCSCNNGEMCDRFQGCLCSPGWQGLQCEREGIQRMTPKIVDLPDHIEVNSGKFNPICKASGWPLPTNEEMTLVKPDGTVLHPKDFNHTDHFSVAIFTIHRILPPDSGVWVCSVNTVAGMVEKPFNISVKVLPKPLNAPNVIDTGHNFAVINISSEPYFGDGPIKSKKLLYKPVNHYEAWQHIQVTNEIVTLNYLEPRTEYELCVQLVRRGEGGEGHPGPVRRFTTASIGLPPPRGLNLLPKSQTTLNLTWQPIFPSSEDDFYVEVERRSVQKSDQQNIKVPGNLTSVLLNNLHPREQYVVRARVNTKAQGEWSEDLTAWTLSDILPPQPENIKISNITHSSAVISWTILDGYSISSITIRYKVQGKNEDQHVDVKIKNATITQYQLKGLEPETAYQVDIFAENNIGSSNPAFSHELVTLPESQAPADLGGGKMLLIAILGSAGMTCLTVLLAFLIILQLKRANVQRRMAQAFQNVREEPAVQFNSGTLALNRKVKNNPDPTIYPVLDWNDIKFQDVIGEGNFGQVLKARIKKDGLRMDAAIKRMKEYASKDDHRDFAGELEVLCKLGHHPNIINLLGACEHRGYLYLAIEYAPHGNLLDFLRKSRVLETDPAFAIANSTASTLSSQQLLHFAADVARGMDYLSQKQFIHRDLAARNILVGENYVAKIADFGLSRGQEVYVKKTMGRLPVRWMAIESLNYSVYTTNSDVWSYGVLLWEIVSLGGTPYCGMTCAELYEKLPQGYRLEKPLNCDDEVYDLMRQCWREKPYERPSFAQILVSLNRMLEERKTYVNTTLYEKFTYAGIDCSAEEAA
Another data set concerns the target VEGFR2 (Homo sapiens (Human), UniProt P35968). The data set is described as follows: In vitro kinase binding assay (VEGFR2). How it is done: All reactions performed in polypropylene 384-well plate. Each was a final volume of 0.02 ml.
The conditions of data set [2]: rat, in vivo, 40.21 mg/kg.
A short description of another data set: Toxicokinetics in rats. The conditions noted are these: D-4517 12 mg/kg daily IP, sunitinib 30 mg/kg daily oral. The format is in vivo, Sprague-Dawley rats.
The subject of data set [3] is choroidal neovascularization (CNV). As to the kind of experiment: Laser-induced CNV mouse model, single IP dose, duration of efficacy. Conditions: single IP dose (aflibercept IVT). Type of data set: in vivo, C57BL/6 mice.
Data set [4] shares this test system. As to the kind of experiment: Laser-induced CNV mouse model, single IV dose. The conditions noted are these: single dose 24 hr after laser (IV; aflibercept IVT 40 μg); CNV area 7 days after laser.
Protocol: As a positive control group, a cohort of mice were administered aflibercept (EYLEA®) intravitreally (IVT; 1 μL, 40 μg). The CNV area was measured 7 days after laser treatment by both fluorescein angiography and flat-mounts of the sclera-choroid/RPE complexes stained with isolectin IB4.

Chain of VEGFR2 (P35968 20-1356): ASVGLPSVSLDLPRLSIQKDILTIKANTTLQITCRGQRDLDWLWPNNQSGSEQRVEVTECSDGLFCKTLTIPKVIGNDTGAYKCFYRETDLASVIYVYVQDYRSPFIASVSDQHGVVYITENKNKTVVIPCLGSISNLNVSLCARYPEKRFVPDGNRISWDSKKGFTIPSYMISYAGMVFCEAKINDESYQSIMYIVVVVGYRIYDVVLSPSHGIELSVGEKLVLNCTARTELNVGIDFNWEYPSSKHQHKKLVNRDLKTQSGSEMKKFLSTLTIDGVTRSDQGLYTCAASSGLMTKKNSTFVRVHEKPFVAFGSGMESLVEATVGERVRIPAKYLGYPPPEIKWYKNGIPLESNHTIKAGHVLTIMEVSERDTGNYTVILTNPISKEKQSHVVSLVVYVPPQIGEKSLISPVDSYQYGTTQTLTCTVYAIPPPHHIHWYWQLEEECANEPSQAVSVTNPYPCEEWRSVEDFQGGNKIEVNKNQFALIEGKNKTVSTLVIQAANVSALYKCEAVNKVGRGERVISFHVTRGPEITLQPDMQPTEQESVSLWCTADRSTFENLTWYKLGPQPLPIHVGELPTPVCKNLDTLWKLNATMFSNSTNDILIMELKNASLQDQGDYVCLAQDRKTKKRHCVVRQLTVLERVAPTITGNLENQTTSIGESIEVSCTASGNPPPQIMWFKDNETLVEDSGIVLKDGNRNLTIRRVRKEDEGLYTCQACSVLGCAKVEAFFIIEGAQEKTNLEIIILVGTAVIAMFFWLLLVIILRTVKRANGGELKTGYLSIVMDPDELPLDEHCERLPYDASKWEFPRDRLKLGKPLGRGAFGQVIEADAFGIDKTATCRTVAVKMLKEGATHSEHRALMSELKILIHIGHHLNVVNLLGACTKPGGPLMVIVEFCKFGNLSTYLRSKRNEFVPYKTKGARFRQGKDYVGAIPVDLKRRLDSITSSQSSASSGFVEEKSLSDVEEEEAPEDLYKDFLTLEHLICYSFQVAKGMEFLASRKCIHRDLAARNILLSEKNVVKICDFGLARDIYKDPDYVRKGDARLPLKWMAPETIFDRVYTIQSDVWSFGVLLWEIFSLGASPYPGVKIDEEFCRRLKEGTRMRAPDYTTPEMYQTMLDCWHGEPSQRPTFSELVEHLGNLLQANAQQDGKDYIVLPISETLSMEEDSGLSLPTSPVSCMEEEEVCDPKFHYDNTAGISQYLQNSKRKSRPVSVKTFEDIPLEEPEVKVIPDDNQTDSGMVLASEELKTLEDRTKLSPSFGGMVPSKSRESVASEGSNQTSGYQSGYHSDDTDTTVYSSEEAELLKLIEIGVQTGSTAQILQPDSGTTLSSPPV
Protocol for Toxicokinetics in rats: Toxicokinetic data was collected in rats. […] Blood samples were collected, and plasma drug concentrations were determined. Noncompartmental toxicokinetic parameters were estimated.

Take `CC1(C)C(/C=C/C=C/C=C/C=C2\N(CCCCS(=O)(=O)[O-])c3ccc4ccccc4c3C2(C)C)=[N+](CCCCS(=O)(=O)[O-])c2ccc3ccccc3c21.[Na+]` [free ICG, indocyanine green]: the “time at which no longer present in the lesions” value in data set [1] (free ICG control groups, IV 24 hr post-laser) is reported as 7-14 days post-laser. Moreover, in data set [1] (systemic administration, within 24 hr after dosing), the “uptake/distribution in CNV lesions” value is on record as “distributes non-specifically”.

With `COC(=O)Nc1nc2ccc(Oc3ccc(NC(=O)Nc4cc(C(F)(F)F)ccc4OCCCCN=[N+]=[N-])cc3)cc2[nH]1` [Structure V], the Kd at TIE II was around 8.8 nM.

On VEGFR2, `Cc1[nH]c(/C=C2\C(=O)Nc3ccc(F)cc32)c(C)c1C(=O)NCCNC(=O)CCOCCOCCOCCN=[N+]=[N-]` came in with a dissociation constant Kd of 1 nM.

In the case of `CCN(CC)CCNC(=O)c1c(C)[nH]c(/C=C2\C(=O)Nc3ccc(F)cc32)c1C` [Sunitinib Malate, reference compound], the overall tolerability entry in data set [2] was “various clinical and pathological changes in addition to mortality in female rats”.

Take `CCN(CC)CCNC(=O)c1c(C)[nH]c(/C=C2\C(=O)Nc3ccc(F)cc32)c1C` [free sunitinib, sunitinib]: the “AUC estimates, sunitinib compared to D-4517” value in the data set “Toxicokinetics in rats” is recorded as “higher”.

For aflibercept, the CNV area result in data set [3] (day 7 post-treatment) was “Significant reduction in the CNV area”; in data set [3] (day 14 post-treatment), “not sustained”. The “reduction in CNV area compared with vehicle control” value in data set [4] is “Statistically significant reductions in the CNV area”.

The Kd is a measure of binding affinity in units of concentration. Higher therefore signals lower affinity.
